The target in this test is CXCR3 (Macaca fascicularis, UniProt A0A2K5UV19). The test is described as follows: functional cellular assay measuring calcium flux in CXCR3 transfected cells (block of CXCR3/IP-10 interaction). Format: cell-based, Cyno. Particulars: IP-10 induced intracellular calcium flux; Cyno-CHO cells stably expressing recombinant CXCR3 and G-alpha-16; IP-10 at EC80; read-out: IC50. As to the method:
Compounds are assessed for the ability to block the interaction of CXCR3 and IP-10 in a functional cellular assay measuring calcium flux in CXCR3 transfected cells.
Cyno-CHO cells, stably expressing recombinant CXCR3 and G-alpha-16 are grown in F12 medium (Mediatech #45000-360) supplemented with 10% (V/V) FBS (Mediatech #35-01500), 1% Geneticin (Invitrogen #10131-027) and 0.2% Zeocin (Invitrogen #R250-05). The cells are spun down and re-suspended in growth media to a concentration of […]. 25 microL of cell suspension is added to each well of a BD-384-well TC treated plate, providing 12,000 cells/well. The plate is incubated at 37° C./5% CO2 overnight. On the day of the assay, the plates are removed, the media is flicked out and 25 microL of Ca-4 dye in assay buffer (HBSS, 10 mM HEPES ph 7.4), containing 2 mM probenacid is added to each well. The cell assay plates are then incubated at 37° C./5% CO2 for one hour.
Test compounds are dissolved in DMSO and diluted to 1.045 mM in DMSO. Just prior to assay, 2.75 microL of appropriately diluted test compound are added to each well of a 384 well plate containing 45 microL of HBSS buffer. After mixing, 5 microL of diluted compound are added to each well of the cell assay plate for a final assay concentration of 10 microM. The plate is incubated at room temperature for 15 min. 10 microL of IP-10 stock solution in HBSS (4× EC80 concentration) are added to each well of the cell assay plate except those cells reserved as blank wells containing buffer only. Intracellular calcium flux is recorded on the HAMAMTSU FDSS6000, using excitation at 480 nm and emission at 540 nm. Data are analyzed using Activity Base software.
In general, the preferred potency range (IC50) of compounds in the above assay is between 1 nM to 3 μM, and the most preferred potency range is 1 nM to 200 nM.
For orientation: A change in cytosolic calcium serves as a functional read-out for many receptors and channels.

Sequence of CXCR3 (A0A2K5UV19 entry or part of it): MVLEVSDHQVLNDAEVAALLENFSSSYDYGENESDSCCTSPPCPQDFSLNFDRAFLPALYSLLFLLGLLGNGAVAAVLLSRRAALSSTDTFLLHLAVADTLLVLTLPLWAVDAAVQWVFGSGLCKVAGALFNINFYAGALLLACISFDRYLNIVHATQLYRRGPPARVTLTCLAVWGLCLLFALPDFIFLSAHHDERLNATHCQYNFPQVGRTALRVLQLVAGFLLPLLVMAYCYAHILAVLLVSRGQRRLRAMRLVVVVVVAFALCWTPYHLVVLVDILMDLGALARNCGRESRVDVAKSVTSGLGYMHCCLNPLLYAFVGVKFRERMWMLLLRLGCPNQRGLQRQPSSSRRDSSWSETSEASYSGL

What is called IC50 is the concentration needed to halve the response being measured. `O=C(CN1CCCCC1=O)N1CCN(c2ccc(F)cc2-c2cnc(N3CCC(O)CC3)nc2)CC1` [1-[2-(4-{4-fluoro-2-[2-(4-hydroxypiperidin-1-yl)pyrimidin-5-yl]phenyl}piperazin-1-yl)-2-oxoethyl]piperidin-2-one]: the IC50 was determined as 16 nM.
For the molecule `CN1CCN(c2ncc(-c3cc(F)ccc3N3CCN(C(=O)Cn4c(=O)[nH]c5ccccc54)CC3)cn2)CC1` [1-[2-(4-{4-fluoro-2-[2-(4-methylpiperazin-1-yl)pyrimidin-5-yl]phenyl}piperazin-1-yl)-2-oxoethyl]-1,3-dihydro-2H-benzimidazol-2-one], the IC50 worked out at 14 nM.
Under `CN1CCN(c2ncc(-c3cc(F)ccc3N3CCN(C(=O)CN4CCCCC4=O)CC3)cn2)CC1` [1-[2-(4-{4-fluoro-2-[2-(4-methylpiperazin-1-yl)pyrimidin-5-yl]phenyl}piperazin-1-yl)-2-oxoethyl]piperidin-2-one] stands 94 nM; under `CC1CN(c2ccc(F)cc2-c2cnc(S(C)(=O)=O)nc2)CCN1C(=O)Cn1c(=O)[nH]c2ccccc21` (stereo not shown) [1-[2-(4-{4-fluoro-2-[2-(methylsulfonyl)pyrimidin-5-yl]phenyl}-2-methylpiperazin-1-yl)-2-oxoethyl]-1,3-dihydro-2H-benzimidazol-2-one], 60 nM; under `CS(=O)(=O)c1ncc(-c2cc(F)ccc2N2CCN(C(=O)Cn3c(=O)[nH]c4ccccc43)CC2)cn1` [1-[2-(4-{4-fluoro-2-[2-(methylsulfonyl)pyrimidin-5-yl]phenyl}piperazin-1-yl)-2-oxoethyl]-1,3-dihydro-2H-benzimidazol-2-one], 47 nM.
Under `O=C(Cn1c(=O)[nH]c2ccccc21)N1CCN(c2ccc(F)cc2-c2cnc(N3CCOCC3)nc2)CC1` [1-[2-(4-{4-fluoro-2-[2-(morpholin-4-yl)pyrimidin-5-yl]phenyl}piperazin-1-yl)-2-oxoethyl]-1,3-dihydro-2H-benzimidazol-2-one] stands 11 nM; under `O=C(CN1CCCCC1=O)N1CCN(c2ccc(F)cc2-c2cnc(N3CCOCC3)nc2)CC1` [1-[2-(4-{4-fluoro-2-[2-(morpholin-4-yl)pyrimidin-5-yl]phenyl}piperazin-1-yl)-2-oxoethyl]piperidin-2-one], 30 nM.
For `O=C(Cn1c(=O)[nH]c2ccccc21)N1CCN(c2ccc(F)cc2-c2cnc(N3CCCC3)nc2)CC1` [1-[2-(4-{4-fluoro-2-[2-(pyrrolidin-1-yl)pyrimidin-5-yl]phenyl}piperazin-1-yl)-2-oxoethyl]-1,3-dihydro-2H-benzimidazol-2-one] the value was 14 nM.
As to `O=C(CN1CCCCC1=O)N1CCN(c2ccc(F)cc2-c2cnc(N3CCCC3)nc2)CC1` [1-[2-(4-{4-fluoro-2-[2-(pyrrolidin-1-yl)pyrimidin-5-yl]phenyl}piperazin-1-yl)-2-oxoethyl]piperidin-2-one], the 50% inhibitory concentration (IC50) was 23 nM.
Take `CC1CN(c2ccccc2-c2cnc(N3CCC(S(C)(=O)=O)CC3)nc2)CCN1C(=O)Cn1ccc2cccnc21` (stereo not shown) [1-[2-methyl-4-(2-{2-[4-(methylsulfonyl)piperidin-1-yl]pyrimidin-5-yl}phenyl)piperazin-1-yl]-2-(1H-pyrrolo[2,3-b]pyridin-1-yl)ethanone]: the IC50 stood at 9 nM.
Take `CC1CN(c2ccccc2-c2cnc(N3CCC(S(C)(=O)=O)CC3)nc2)CCN1C(=O)Cn1ccc2ccncc21` (stereo not shown) [1-[2-methyl-4-(2-{2-[4-(methylsulfonyl)piperidin-1-yl]pyrimidin-5-yl}phenyl)piperazin-1-yl]-2-(1H-pyrrolo[2,3-c]pyridin-1-yl)ethanone]: the IC50 is 8 nM.
As for `Cc1cc(C)n(CC(=O)N2CCN(c3ccccc3-c3cccc(Cl)c3)CC2)n1` [1-[4-(3′-Chloro-biphenyl-2-yl)-piperazin-1-yl]-2-(3,5-dimethyl-pyrazol-1-yl)-ethanone], the 50% inhibitory concentration (IC50) was 111 nM.
For `CC1CN(c2ccc(F)cc2-c2cnc(N3CCC(S(C)(=O)=O)CC3)nc2)CCN1C(=O)Cn1ccc2cccnc21` (stereo not shown) [1-[4-(4-fluoro-2-{2-[4-(methylsulfonyl)piperidin-1-yl]pyrimidin-5-yl}phenyl)-2-methylpiperazin-1-yl]-2-(1H-pyrrolo[2,3-b]pyridin-1-yl)ethanone] the value was 8 nM.
For `CC1CN(c2ccc(F)cc2-c2cnc(N3CCC(S(C)(=O)=O)CC3)nc2)CCN1C(=O)Cn1ccc2ccncc21` (stereo not shown) [1-[4-(4-fluoro-2-{2-[4-(methylsulfonyl)piperidin-1-yl]pyrimidin-5-yl}phenyl)-2-methylpiperazin-1-yl]-2-(1H-pyrrolo[2,3-c]pyridin-1-yl)ethanone] the value was 8 nM; for `CC1CN(c2ccc(F)cc2-c2cnc(N3CCC(S(C)(=O)=O)CC3)nc2)CCN1C(=O)Cn1cnc2cccnc21` (stereo not shown) [1-[4-(4-fluoro-2-{2-[4-(methylsulfonyl)piperidin-1-yl]pyrimidin-5-yl}phenyl)-2-methylpiperazin-1-yl]-2-(3H-imidazo[4,5-b]pyridin-3-yl)ethanone], 13 nM; for `CS(=O)(=O)C1CCN(c2ncc(-c3cc(F)ccc3N3CCN(C(=O)Cn4ccc5cccnc54)CC3)cn2)CC1` [1-[4-(4-fluoro-2-{2-[4-(methylsulfonyl)piperidin-1-yl]pyrimidin-5-yl}phenyl)piperazin-1-yl]-2-(1H-pyrrolo[2,3-b]pyridin-1-yl)ethanone], 9 nM.
Regarding `CS(=O)(=O)C1CCN(c2ncc(-c3cc(F)ccc3N3CCN(C(=O)Cn4ccc5ccncc54)CC3)cn2)CC1` [1-[4-(4-fluoro-2-{2-[4-(methylsulfonyl)piperidin-1-yl]pyrimidin-5-yl}phenyl)piperazin-1-yl]-2-(1H-pyrrolo[2,3-c]pyridin-1-yl)ethanone], the IC50 was determined as 8 nM.
Turning to `CS(=O)(=O)C1CCN(c2ncc(-c3cc(F)ccc3N3CCN(C(=O)Cn4cnc5cccnc54)CC3)cn2)CC1` [1-[4-(4-fluoro-2-{2-[4-(methylsulfonyl)piperidin-1-yl]pyrimidin-5-yl}phenyl)piperazin-1-yl]-2-(3H-imidazo[4,5-b]pyridin-3-yl)ethanone], the concentration for half-maximal inhibition (IC50) turned out to be 10 nM.
Under `Cc1cc(C)n(CC(=O)N2CCN(c3ccccc3-c3cnc(N4CCCC(C(N)=O)C4)nc3)CC2)n1` (stereo not shown) [1-[5-(2-{4-[2-(3,5-Dimethyl-pyrazol-1-yl)-acetyl]-piperazin-1-yl}-phenyl)-pyrimidin-2-yl]-piperidine-3-carboxylic acid amide] stands 9 nM; under `Cc1cc(C)n(CC(=O)N2CCN(c3ccccc3-c3cnc(N4CCC(C(N)=O)CC4)nc3)CC2)n1` [1-[5-(2-{4-[2-(3,5-Dimethyl-pyrazol-1-yl)-acetyl]-piperazin-1-yl}-phenyl)-pyrimidin-2-yl]-piperidine-4-carboxylic acid amide], 6 nM; under `CNC(=O)C1CCN(c2ncc(-c3ccccc3N3CCN(C(=O)Cn4nc(C)cc4C)CC3)cn2)CC1` [1-[5-(2-{4-[2-(3,5-Dimethyl-pyrazol-1-yl)-acetyl]-piperazin-1-yl}-phenyl)-pyrimidin-2-yl]-piperidine-4-carboxylic acid methylamide], 9 nM.
For `CC1CN(c2ccccc2-c2cnc(N3CCOCC3)nc2)CCN1C(=O)Cn1ccc2cccnc21` (stereo not shown) [1-{2-Methyl-4-[2-(2-morpholin-4-yl-pyrimidin-5-yl)-phenyl]-piperazin-1-yl}-2-pyrrolo[2,3-b]pyridin-1-yl-ethanone] the value was 13 nM.

For the origin of these results see patent US8450317B2, “CXCR3 receptor antagonists” (Boehringer Ingelheim International GmbH, priority 2009, dated 2013).
